From PMC7377239, “Cardiovascular Effects of Polychlorinated Biphenyls and Their Major Metabolites” (Environmental Health Perspectives, 2020)
Like-named read-outs stand apart in the source and are kept apart here.

Assays:
[1] = test system: iCell endothelial cells (human iPSC-derived ECs); test: Tube formation (tubulogenesis) assay in iCell endothelial cells, 18 h; assay type: cell-based; conditions: Homo sapiens, Endothelial cell, iPSC-EC tube formation, 18 hr; for activity at 0.1 µM: 0.10 µM; for minimal effective concentration: top concentration 100.00 µM
Outline: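 iCell ECs (passages 1–5) seeded 7,500 cells/well on reduced-growth-factor Geltrex in starvation medium, exposed overnight at 37°C to compounds in triplicate concentration–response (0.5% DMSO vehicle). Calcein AM staining, 4× imaging, angiogenesis image analysis; readouts normalized to vehicle, four-parameter logistic fit, POD at 1 SD of vehicle; 100 μM assigned NOAEL if no response.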

HUVECs = test: Tube formation (tubulogenesis) assay in HUVECs, 18 h; assay type: cell-based, human; conditions: Homo sapiens, HUVEC, 18 h, HUVECs; for activity at 0.1 µM: 0.10 µM; for minimal effective concentration: top concentration 100.00 µM
Outline: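 HUVECs (passage 1–5) seeded on reduced-growth-factor basement membrane and exposed to compounds overnight at 37°C, 5% CO2, in 2× maintenance medium with 12.5 ng/mL VEGF; 0.5% DMSO vehicle. Calcein AM-stained tube networks imaged and analysed; vehicle-normalized readouts fit to four-parameter logistic, POD set at one SD of vehicle means.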

[2] = 0.00 µM control = 100.00, read-out: endo.mtl.18hr
[3] = 0.00 µM control = 100.00, read-out: endo.tlps.18hr
[4] = 0.00 µM control = 100.00, read-out: endo.tta.18hr
[5] = 0.00 µM control = 100.00, read-out: endo.ttl.18hr
[6] = 0.00 µM = 100.00, read-out: huvec.mtl.18hr
[7] = 0.00 µM = 100.00, read-out: huvec.tlps.18hr
[8] = 0.00 µM = 100.00, read-out: huvec.tta.18hr
[9] = 0.00 µM = 100.00, read-out: huvec.ttl.18hr

In the case of Oc1ccc(-c2cccc(Cl)c2)cc1Cl [4-OH PCB11], the activity at 0.01 µM [1, 2] was 108%, the activity at 0.01 µM [1, 3] was 105% and the activity at 0.01 µM [1, 4] was 164%. For the same compound, the activity at 0.01 µM [1, 5] was 164%, the activity at 0.1 µM [1, 2] was 111% and the activity at 0.1 µM [1, 3] was 99.3%. The activity at 0.1 µM [1, 4] was 131%, the activity at 0.1 µM [1, 5] was 135% and the activity at 1 µM [1, 2] was 106%. For the same compound, the activity at 1 µM [1, 3] was 114%, the activity at 1 µM [1, 4] was 144% and the activity at 1 µM [1, 5] was 144%. For the same compound, the activity at 10 µM [1, 2] was 95.5%, the activity at 10 µM [1, 3] was 119% and the activity at 10 µM [1, 4] was 87.6%. The activity at 10 µM [1, 5] was 85.5%, the activity at 100 µM [1, 2] was 52.6% and the activity at 100 µM [1, 3] was 14.8%. It also gave an activity at 100 µM [1, 4] of 9.99%, an activity at 100 µM [1, 5] of 11.5% and a minimal effective concentration ([1]; read-out: endo.mtl.18hr POD) of 17.7 µM. The minimal effective concentration ([1]; read-out: endo.tlps.18hr POD) was 52.5 µM, the minimal effective concentration ([1]; read-out: endo.tta.18hr POD) was 15.8 µM and the minimal effective concentration ([1]; read-out: endo.ttl.18hr POD) was 16.1 µM. It also gave an activity at 0.01 µM (HUVECs; [6]) of 113%, an activity at 0.01 µM (HUVECs; [7]) of 135% and an activity at 0.01 µM (HUVECs; [8]) of 121%. The activity at 0.01 µM (HUVECs; [9]) was 115%, the activity at 0.1 µM (HUVECs; [6]) was 115% and the activity at 0.1 µM (HUVECs; [7]) was 127%. For the same compound, the activity at 0.1 µM (HUVECs; [8]) was 133%, the activity at 0.1 µM (HUVECs; [9]) was 125% and the activity at 1 µM (HUVECs; [6]) was 112%. It also gave an activity at 1 µM (HUVECs; [7]) of 149%, an activity at 1 µM (HUVECs; [8]) of 110% and an activity at 1 µM (HUVECs; [9]) of 107%. For the same compound, the activity at 10 µM (HUVECs; [6]) was 77.3%, the activity at 10 µM (HUVECs; [7]) was 94.8% and the activity at 10 µM (HUVECs; [8]) was 89.2%. The activity at 10 µM (HUVECs; [9]) was 81.5%, the activity at 100 µM (HUVECs; [6]) was 62.9% and the activity at 100 µM (HUVECs; [7]) was 61.6%. The activity at 100 µM (HUVECs; [8]) was 84.3%, the activity at 100 µM (HUVECs; [9]) was 85.2% and the minimal effective concentration (HUVECs; read-out: huvec.mtl.18hr POD) was 7.09 µM. It also gave a minimal effective concentration (HUVECs; read-out: huvec.tlps.18hr POD) of 35.3 µM, a minimal effective concentration (HUVECs; read-out: huvec.tta.18hr POD) of 100 µM and a minimal effective concentration (HUVECs; read-out: huvec.ttl.18hr POD) of 4.15 µM.

With Oc1cc(Cl)c(-c2cc(Cl)ccc2Cl)cc1Cl [4-OH PCB52] the activity at 0.01 µM [1, 2] was 114%, the activity at 0.01 µM [1, 3] was 107% and the activity at 0.01 µM [1, 4] was 144%. For the same compound, the activity at 0.01 µM [1, 5] was 144%, the activity at 0.1 µM [1, 2] was 119% and the activity at 0.1 µM [1, 3] was 109%. The activity at 0.1 µM [1, 4] was 116%, the activity at 0.1 µM [1, 5] was 125% and the activity at 1 µM [1, 2] was 111%. For the same compound, the activity at 1 µM [1, 3] was 129%, the activity at 1 µM [1, 4] was 118% and the activity at 1 µM [1, 5] was 124%. The activity at 10 µM [1, 2] was 84.5%, the activity at 10 µM [1, 3] was 70.9% and the activity at 10 µM [1, 4] was 86%. For the same compound, the activity at 10 µM [1, 5] was 85.7%, the activity at 100 µM [1, 2] was 0% and the activity at 100 µM [1, 3] was 0%. It also gave an activity at 100 µM [1, 4] of 0%, an activity at 100 µM [1, 5] of 0% and a minimal effective concentration ([1]; read-out: endo.mtl.18hr POD) of 9.52 µM. The minimal effective concentration ([1]; read-out: endo.tlps.18hr POD) was 8.32 µM, the minimal effective concentration ([1]; read-out: endo.tta.18hr POD) was 15 µM and the minimal effective concentration ([1]; read-out: endo.ttl.18hr POD) was 15.2 µM. It also gave an activity at 0.01 µM (HUVECs; [6]) of 112%, an activity at 0.01 µM (HUVECs; [7]) of 103% and an activity at 0.01 µM (HUVECs; [8]) of 129%. The activity at 0.01 µM (HUVECs; [9]) was 112%, the activity at 0.1 µM (HUVECs; [6]) was 98.5% and the activity at 0.1 µM (HUVECs; [7]) was 96.7%. For the same compound, the activity at 0.1 µM (HUVECs; [8]) was 107%, the activity at 0.1 µM (HUVECs; [9]) was 98.2% and the activity at 1 µM (HUVECs; [6]) was 94%. For the same compound, the activity at 1 µM (HUVECs; [7]) was 92.4%, the activity at 1 µM (HUVECs; [8]) was 123% and the activity at 1 µM (HUVECs; [9]) was 110%. It also gave an activity at 10 µM (HUVECs; [6]) of 91.1%, an activity at 10 µM (HUVECs; [7]) of 77.1% and an activity at 10 µM (HUVECs; [8]) of 98.5%. The activity at 10 µM (HUVECs; [9]) was 87.2%, the activity at 100 µM (HUVECs; [6]) was 69.6% and the activity at 100 µM (HUVECs; [7]) was 35.6%. The activity at 100 µM (HUVECs; [8]) was 168%, the activity at 100 µM (HUVECs; [9]) was 163% and the minimal effective concentration (HUVECs; read-out: huvec.mtl.18hr POD) was 8.34 µM. For the same compound, the minimal effective concentration (HUVECs; read-out: huvec.tlps.18hr POD) was 4.13 µM, the minimal effective concentration (HUVECs; read-out: huvec.tta.18hr POD) was 51.8 µM and the minimal effective concentration (HUVECs; read-out: huvec.ttl.18hr POD) was 62.1 µM.
